Source: patent publication US12491170B2, “Stable treprostinil prodrugs” (United Therapeutics Corporation, priority 2020, dated 2025)
Read-outs that look alike come from different tables or passages of the source.

Key:
[1] = rat
[2] = Stability in human subcutaneous skin homogenate; conditions: for AUC: human
Experimental: The pool of skin homogenate was prepared by combining equal volumes of three lots that were tested in the initial skin homogenate lot assessment experiments.
A stock solution of calcein-AM was first prepared at 5 mM in DMSO, followed by a serial dilution into methanol at a concentration of 100 μM. 495 μL of skin homogenate was thawed and warmed to 37° C. A 5 μL aliquot of the 100 μM calcein-AM solution was spiked into the skin homogenate, for a final calcein-AM dosing concentration of 1 μM. After briefly mixing, 150 μL aliquots were removed in triplicate and transferred to 96-well Falcon plates. The plates were placed onto a Thermomixer and maintained at 37° C., with gentle shaking for the duration of the experiment. At each time point (0, 15, 30, 60, and 120 minutes), the plate was removed from the Thermomixer and transferred to a FLUOstar® plate reader, and the formation of calcein (Sigma) was monitored by fluorescence (490/515 nm). Calibration standards of calcein were prepared in distilled water by serial dilutions of a calcein DMSO stock at final concentrations ranging from 1 μM to 1 nM. All samples and standards were read concurrently (Table 13).
For each of the test articles, 495 μL of skin homogenate was added to triplicate centrifuge tubes. To each tube, 5 μL of a 100 μM solution of test article was added, for a final test article dosing concentration of 1 μM. The tubes were placed onto a Thermomixer and maintained at 37° C. with gentle shaking for the duration of the experiment. At each time point (0, 30, 60, and 120 minutes), a 100 μL aliquot was removed from each tube and combined with 200 μL of acetonitrile to stop the stability reaction. The tubes were mixed and centrifuged at 3000 rpm for 10 minutes. Aliquots of supernatant were removed and diluted 1:1 with distilled water containing internal standard (2 μM treprostinil-d4). Calibration standards for the treprostinil analysis were prepared for each test article in a surrogate matrix (supernatant from a mixture of 1:2 human plasma:acetonitrile), at concentrations ranging from 1 μM to 1 nM. Calibration standards were also diluted 1:1 with distilled water containing internal standard. The disappearance of each individual test article was monitored, as well as the formation of treprostinil (Table 14 and Table 15).

[3] = Stability in liver microsomes, dog
[4] = dog
[5] = Stability in liver microsomes, human; conditions: for AUC: human
[6] = Stability in liver microsomes, rat

| Compound | AUC [1] [µmol·min/L] | Trep Concentration 0 min [2] [µM] | Trep Concentration 30 min [2] [µM] | Trep Concentration 60 min [2] [µM] | AUC [2] [µmol·min/L] | Trep Concentration 0 min [3] [µM] | Trep Concentration 10 min [3] [µM] | Trep Concentration 20 min [3] [µM] | Trep Concentration 60 min [3] [µM] | AUC [4] [µmol·min/L] | Trep Concentration 0 min [5] [µM] | Trep Concentration 10 min [5] [µM] | Trep Concentration 20 min [5] [µM] | Trep Concentration 30 min [5] [µM] | Trep Concentration 60 min [5] [µM] | AUC [5] [µmol·min/L] | Trep Concentration 0 min [6] [µM] | Trep Concentration 10 min [6] [µM] | Trep Concentration 20 min [6] [µM] | Trep Concentration 30 min [6] [µM] | further results |
| --- | --- | --- | --- | --- | --- | --- | --- | --- | --- | --- | --- | --- | --- | --- | --- | --- | --- | --- | --- | --- | --- |
| CCCCCC(O)CCC1C(OC)CC2Cc3c(cccc3OCC(=O)O)CC21 (centres unmarked) [LIII] | 1.47 | 0.0159 | 0.0165 | 0.0165 | 1.99 | 0.0189 | 0.0224 | 0.0209 | 0.0222 | 1.33 | 0.0216 | 0.0336 | 0.0343 | 0.0459 | 0.0354 | 2.24 | 0.0196 | 0.0177 | 0.024 | 0.0274 | Trep Concentration 60 min [6]: 0.0271 µM |
| CCCCCC(CCC1C(O)CC2Cc3c(cccc3OCC(=O)O)CC21)OC(=O)NCC(=O)O (centres unmarked) [XXXVIII] | 0.00 | 0 | 0 | 0 | 0.00 | 0 | 0 | 0 | 0 | 0.00 | 0 | 0 | 0 | 0 | 0 | 0.00 | 0 | 0 | 0 | 0 | Trep Concentration 120 min [2]: 0 µM; Trep Concentration 30 min [3]: 0 µM; Trep Concentration 60 min [6]: 0 µM |
| CCCCCC(CCC1C(O)CC2Cc3c(cccc3OCC(=O)O)CC21)OCOC(=O)C(C)(C)C (centres unmarked) [LII] | 51.78 | 0.0201 | 1.05 | 1.22 | 125.70 | 0.758 | 0.885 | 0.868 | 0.84 | 50.60 | 0.948 | 0.798 | 0.679 | 0.538 | 0.346 | 35.46 | 0.937 | 0.938 | 0.892 | 0.838 | Trep Concentration 120 min [2]: 1.3 µM; Trep Concentration 30 min [3]: 0.834 µM; Trep Concentration 60 min [6]: 0.802 µM |
| CCCCCC(O)CCC1C(OC(=O)CCC(=O)O)CC2Cc3c(cccc3OCC(=O)O)CC21 (centres unmarked) [XXII] | 0.24 | 0 | 0 | 0 | 0.00 | 0 | 0 | 0 | 0 | 0.00 | 0 | 0 | 0 | 0 | 0 | 0.00 | 0 | 0 | 0 | 0 | Trep Concentration 120 min [2]: 0 µM; Trep Concentration 30 min [3]: 0 µM; Trep Concentration 60 min [6]: 0.016 µM |
| CCCCCC(CCC1C(O)CC2Cc3c(cccc3OCC(=O)O)CC21)OC(=O)OC(C)C (centres unmarked) [XVII] | 29.40 | 0 | 0.064 | 0.12 | 13.92 | 0.45 | 0.57 | 0.66 | 0.85 | 42.10 | 0.55 | 0.55 | 0.5 | 0.39 | 0.27 | 25.10 | 0.29 | 0.46 | 0.48 | 0.53 | Trep Concentration 120 min [2]: 0.22 µM; Trep Concentration 30 min [3]: 0.74 µM; Trep Concentration 60 min [6]: 0.53 µM |

Continued, in another order:

| AUC [1] [µmol·min/L] | Trep Concentration 0 min [2] [µM] | Trep Concentration 30 min [2] [µM] | Trep Concentration 60 min [2] [µM] | AUC [2] [µmol·min/L] | Trep Concentration 0 min [3] [µM] | Trep Concentration 10 min [3] [µM] | Trep Concentration 20 min [3] [µM] | Trep Concentration 60 min [3] [µM] | AUC [4] [µmol·min/L] | Trep Concentration 0 min [5] [µM] | Trep Concentration 10 min [5] [µM] | Trep Concentration 20 min [5] [µM] | Trep Concentration 30 min [5] [µM] | Trep Concentration 60 min [5] [µM] | AUC [5] [µmol·min/L] | Trep Concentration 0 min [6] [µM] | Trep Concentration 10 min [6] [µM] | Trep Concentration 20 min [6] [µM] | Trep Concentration 30 min [6] [µM] | Compound | further results |
| --- | --- | --- | --- | --- | --- | --- | --- | --- | --- | --- | --- | --- | --- | --- | --- | --- | --- | --- | --- | --- | --- |
| 54.90 | 0 | 0.17 | 0.31 | 34.95 | 0.66 | 0.95 | 1.01 | 0.92 | 56.90 | 0.69 | 0.6 | 0.49 | 0.41 | 0.25 | 26.30 | 0.98 | 0.97 | 0.92 | 0.91 | CCCCCC(CCC1C(O)CC2Cc3c(cccc3OCC(=O)O)CC21)OC(=O)OCC (centres unmarked) [XVI] | Trep Concentration 120 min [2]: 0.53 µM; Trep Concentration 30 min [3]: 1.01 µM; Trep Concentration 60 min [6]: 0.86 µM |
| 0.00 | 0 | 0 | 0 | 0.00 | 0 | 0 | 0 | 0 | 0.00 | 0 | 0 | 0.014 | 0.018 | 0.022 | 0.83 | 0 | 0 | 0 | 0 | CCCCCC(CCC1C(O)CC2Cc3c(cccc3OCC(=O)O)CC21)OC(=O)N1CCCCC1 (centres unmarked) [XIX] | Trep Concentration 120 min [2]: 0 µM; Trep Concentration 30 min [3]: 0 µM; Trep Concentration 60 min [6]: 0 µM |
| 0.00 | 0 | 0 | 0 | 0.00 | 0 | 0 | 0 | 0 | 0.00 | 0 | 0 | 0 | 0 | 0 | 0.00 | 0 | 0 | 0 | 0 | CCCCCC(CCC1C(O)CC2Cc3c(cccc3OCC(=O)O)CC21)OC(=O)OCC(=O)O (centres unmarked) [XXXIX] | Trep Concentration 120 min [2]: 0 µM; Trep Concentration 30 min [3]: 0 µM; Trep Concentration 60 min [6]: 0 µM |
